The target in data set [1] is T1, eDHFR (Escherichia coli, UniProt P0ABQ4).
T1 sequence (P0ABQ4 1-159): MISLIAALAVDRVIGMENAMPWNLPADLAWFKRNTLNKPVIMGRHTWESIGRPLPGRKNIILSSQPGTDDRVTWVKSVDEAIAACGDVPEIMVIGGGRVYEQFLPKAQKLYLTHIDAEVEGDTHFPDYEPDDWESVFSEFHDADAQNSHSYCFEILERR
Format: cell-based. Also on record: in CAR T cells fused to C-terminus of CD3zeta of FAP-CAR. Conditions: for uptake in eDHFR+ CAR T cells compared to NTD cells: 0.074 MBq, 60 min at 37 °C, FAP-CAR-eDHFR (DF-BFP), day 8 of T cell expansion, 60 min. On the procedure: Primary human T cells were sourced from healthy volunteers through the Human Immunology Core at the University of Pennsylvania. All specimens were obtained following institutional review board-approved protocols and informed consent from the volunteers. Bulk T cells were activated and expanded following established methods and subsequently, either pTRPE-FAP CAR-eDHFR DF or pTRPE-FAP CAR-eDHFR DF-T2A-BFP (7) lentivirus was introduced to the activated T cells 16 hours post-activation at a multiplicity of infection (MOI) of 5. The T cells were then expanded for a period of 10 days. Transduced CAR T cells were incubated with Alexa Fluor 647 AffiniPure F(ab′2) fragment goat anti-mouse immunoglobulin G (Jackson ImmunoResearch Laboratories) for half an hour at room temperature. Following incubation, stained cells were washed 3*100 μL with FACS buffer (2% bovine serum albumin in PBS, Invitrogen). The washed cells were analyzed using a flow cytometer (LSR II, BD Biosciences) to detect CAR and/or BFP expression. FlowJo software was used to analyze the flow data.
Next, the uptake radio-iodinated probe 5b was evaluated in primary human CAR-T cells. CAR-T cells were engineered to express eDHFR which is fused directly to the C-terminus of the signaling CD3zeta domain of the fibroblast activation protein (FAP) CAR. […] After incubation, the cells were centrifuged at 1200 rpm and were washed thrice with cold PBS (Corning). Subsequently, the cell pellet was resuspended in 1% DMSO/PBS and divided into 3 technical replicates of 100 μL each. The uptake of radiotracer was quantified using a gamma counter (PerkinElmer). The final uptake was expressed as a ratio of % ID normalized per […] cells (% ID/million cells). An about 15 fold more uptake in eDHFR+ cells was observed as compared to NTD cells. See, FIGS. 6A and 6B. The specificity is further assessed by comparing with FAP_CAR_eDHFR(df) which has low eDHFR expression. Less uptake of radiotracer 5b was observed as compared to high expressing eDHFR FAP_CARs.
[^131I]I-TMP in CAR T cells. […] In this case, two different fibroblast activation protein (FAP) CAR T cell constructs that express eDHFR fused directly to the C-terminus of the signaling CD3zeta domain of the CAR were used (7) (FIGS. 13F and 13G). […] There was ~15-fold more uptake in FAP-CAR-eDHFR-DF-BFP in comparison to NTD cells at day 8 of T cell expansion (FIG. 13A).

The subject of a further data set is HCT116 eDHFR-Luc cells. In words: Kill assay (MTT) in HCT116 eDHFR-Luc cells. Conditions: 3.7 MBq; for cell growth at day 10: in comparison to blocked conditions. It is filed as cell-based, human. On the procedure:
(§1) Following the same uptake protocol till washing after the third wash the cells were counted using cell counter and they were diluted to generate even number of cells/mL. […] We've applied the same blocked conditions used in the uptake assay. […] Then cells will be re-distributed into 96 well plates (2,000 cells/well) with fresh media to monitor cell proliferation by MTT assay on days 1, 3, 7 and 10. A total of 9 wells (3×3) were measured on the plate per sample per time point. To complete the assay cell media was removed and replaced with 50 μL of serum free media and 50 μL of MTT reagent. The plates were covered with tin foil and incubated at 37 °C for 3 hours. The plates were shaken at 200 rpm at 37 °C for 15 min. Using the microplate plate reader, sample absorbance was measured at 590 nm for 600 ms. Controls included [^131I]NaI treated cells and blocking with 10 μM parent TMP (unlabeled). An analogous procedure was used for the OVCAR8-eDHFR-Luc kill assay with different doses (1.85-37 MBq) and treatment times.
Despite lower uptake in HCT116 cells, cell viability was measured on days 1, 3, 7, and 10 using the MTT assay and compared with blocked, no drug and [^131I]I—Na treated cells. […] See, FIG. 3A. […] See, FIG. 3B.

The subject of the next data set is OVCAR8-eDHFR-Luc cells. In words: Kill assay (MTT) in OVCAR8-eDHFR-Luc cells. Format: cell-based, human. On the procedure:
as §1
To investigate the therapeutic potential of m[^131I]mI-TMP 5b in tumor cell lines, OVCAR8 eDHFR+ cells were exposed to varying doses (ranging from 1.85-37 MBq) of the radiotracer of 5b at different incubation times. Different conditions were employed to assess the selective therapeutic effect of the radio tracer on eDHFR+ cells. To determine the specific killing of eDHFR+ tumor cells, blocked conditions were analyzed. The cell viability of compound 5b-treated cells was also compared with the cells exposed to [^131I]I—Na. Additionally, untreated cells were used as controls. The MTT assay was used to measure the cell viability of the cells under the aforementioned conditions on days 1, 3, 7, and 12.
OVCAR8-eDHFR-Luc+ cells were treated with 1.85 and 18.5 MBq of m[^131I]mI-TMP 5b and [^131I]I—Na, incubated for 1 hour. […] The cell viability of the compound 5b-treated cells was similar to cells under blocked, [^131I]NaI, and no drug conditions. See, FIG. 2A. […] See, FIG. 2B. Based on the results obtained, a continued dose escalation was considered to better understand the therapeutic window. Finally, OVCAR_eDHFR+ cells were tested with 37 MBq dose of m[^131I]mI-TMP.

For data set [2], the target named is T1, eDHFR.

Read-outs that look alike come from different tables or passages of the source.

Turning to `COc1cc(Cc2cnc(N)nc2N)cc(I)c1OC` [[^131I]mI-TMP, 5-(3-iodo-4,5-dimethoxybenzyl)pyrimidine-2,4-diamine], the “retention in washout study” value on eDHFR [1] (FAP_CAR_eDHFR cells, after 5 h) was “strong internalization of compound 5b even after 5 h”. For the same compound, on eDHFR [1] (compared to high expressing eDHFR FAP_CARs), the “uptake in FAP_CAR_eDHFR(df) with low eDHFR expression” value is “Less uptake”. In addition, the cytotoxic effect result in the data set with HCT116 eDHFR-Luc cells (2 hours incubation) is reported as “did not exhibit any cytotoxic effect”; in the data set on HCT116 eDHFR-Luc cells (4 hours incubation, compared to blocked cells), “demonstrated a cytotoxic effect”. Besides, the “cell viability at day 7” value in the data set with HCT116 eDHFR-Luc cells (4 hours incubation) is “did not show any viability on day 7”. In addition, the “cell growth at day 10” value with HCT116 eDHFR-Luc cells (4 hours incubation) is “mild growth at day 10”. Also, the “cytotoxic effect / cell viability” value with OVCAR8-eDHFR-Luc cells (1.85 MBq, 1 hour) was “did not exhibit any cytotoxic effects/decreased viability”; in the data set with OVCAR8-eDHFR-Luc cells (18.5 MBq, 1 h, viability to day 12) it was “strong cytotoxic effects, and thus no cell regrowth/significantly lower viability was observed at day 7 and even at day 12”. In addition, in the data set on OVCAR8-eDHFR-Luc cells (18.5 MBq, 1 h, cells treated with the blocking agent (10 μM TMP)), the “cell viability under blocked conditions” value is “comparable viability to those under no treatment or [^131I]I—Na conditions”. Besides, at eDHFR [2] (OVCAR8 eDHFR cells preincubated with excess of TMP), the “uptake under blocked conditions” value is recorded as “reduced uptake”.

With `COc1cc(Cc2cnc(N)nc2N)cc([131I])c1OC` [[^131I]mI-TMP, 5-(3-iodo-4,5-dimethoxybenzyl)pyrimidine-2,4-diamine], on eDHFR [1], the “uptake in eDHFR+ CAR T cells compared to NTD cells” value is on record as “about 15 fold”. Moreover, the “uptake in eDHFR+ CAR T cells compared to NTD cells” value on eDHFR [1] (listed as [^131I]I-TMP) is on record as ~ 15 fold. For the same compound, the “uptake in CAR T cells, earlier day of expansion” value at eDHFR [1] (earlier day of expansion (day 5)) was ~ 3 fold. Moreover, in the data set on HCT116 eDHFR-Luc cells (4 hours incubation), the “cell viability at day 7” value is recorded as “no cell regrowth at day 7”; the “cell growth at day 10” value is “mild regrowth was observed at day 10 and beyond”. The cytotoxic effect result in the data set on OVCAR8-eDHFR-Luc cells (37 MBq, also with 20 minutes incubation, blocked cells behaved the same) was “non-specific cell killing”. For the same compound, at eDHFR [2] (OVCAR8-eDHFR-Luc vs OVCAR8 WT, 0.037 MBq, 1 hour), the “tracer uptake in eDHFR+ cells compared to WT cells” value is ~ 25 fold.

(Values after US20260364213A1, “RADIOLABELED COMPOUNDS OF TRIMETHOPRIM AND USES THEREOF” (THE TRUSTEES OF THE UNIVERSITY OF PENNSYLVANIA, priority 2023, published 2026).)
